Key:
Assay in all cases: HotSpot kinase assay
[1] = target: ITK (Homo sapiens, UniProt Q08881); conditions: read-out: % Enzyme Activity (relative to DMSO control), 10 uM
Excerpt: (§1) Additionally, a 10-dose dilution series of staurosporine and other enzyme-appropriate compounds were included as positive control inhibitors.

[2] = target: DRAK1/STK17A (Homo sapiens, UniProt Q9UEE5); conditions: read-out: % Enzyme Activity (relative to DMSO control), 10 uM
[3] = target: c-Src (Homo sapiens, UniProt P12931); conditions: read-out: % Enzyme Activity (relative to DMSO control), 10 uM
[4] = target: FGFR3 (Homo sapiens, UniProt P22607); conditions: read-out: % Enzyme Activity (relative to DMSO control), 10 uM
Excerpt: as §1

[5] = target: CHK2 (Homo sapiens, UniProt O96017); conditions: read-out: % Enzyme Activity (relative to DMSO control), 10 uM
[6] = target: TNK1 (Homo sapiens, UniProt Q13470); conditions: read-out: % Enzyme Activity (relative to DMSO control), 10 uM
Excerpt: as §1

[7] = target: ERK7/MAPK15 (Homo sapiens, UniProt Q8TD08); conditions: read-out: % Enzyme Activity (relative to DMSO control), 10 uM
Excerpt: as §1

[8] = target: EPHA5 (Homo sapiens, UniProt P54756); conditions: read-out: % Enzyme Activity (relative to DMSO control), 10 uM
Excerpt: as §1

[9] = target: TESK1 (Homo sapiens, UniProt Q15569); conditions: read-out: % Enzyme Activity (relative to DMSO control), 10 uM
Excerpt: as §1

[10] = target: WEE1 (Homo sapiens, UniProt P30291); conditions: read-out: % Enzyme Activity (relative to DMSO control), 10 uM
Excerpt: as §1

[11] = target: PDGFRb (Homo sapiens, UniProt P09619); conditions: read-out: % Enzyme Activity (relative to DMSO control), 10 uM
[12] = target: TIE2/TEK (Homo sapiens, UniProt Q02763); conditions: read-out: % Enzyme Activity (relative to DMSO control), 10 uM
Excerpt: as §1

[13] = target: T1, TAOK2/TAO1 (Homo sapiens, UniProt Q9UL54); conditions: for IC50: ATP 10 µM
T1 sequence (Q9UL54 1-1235): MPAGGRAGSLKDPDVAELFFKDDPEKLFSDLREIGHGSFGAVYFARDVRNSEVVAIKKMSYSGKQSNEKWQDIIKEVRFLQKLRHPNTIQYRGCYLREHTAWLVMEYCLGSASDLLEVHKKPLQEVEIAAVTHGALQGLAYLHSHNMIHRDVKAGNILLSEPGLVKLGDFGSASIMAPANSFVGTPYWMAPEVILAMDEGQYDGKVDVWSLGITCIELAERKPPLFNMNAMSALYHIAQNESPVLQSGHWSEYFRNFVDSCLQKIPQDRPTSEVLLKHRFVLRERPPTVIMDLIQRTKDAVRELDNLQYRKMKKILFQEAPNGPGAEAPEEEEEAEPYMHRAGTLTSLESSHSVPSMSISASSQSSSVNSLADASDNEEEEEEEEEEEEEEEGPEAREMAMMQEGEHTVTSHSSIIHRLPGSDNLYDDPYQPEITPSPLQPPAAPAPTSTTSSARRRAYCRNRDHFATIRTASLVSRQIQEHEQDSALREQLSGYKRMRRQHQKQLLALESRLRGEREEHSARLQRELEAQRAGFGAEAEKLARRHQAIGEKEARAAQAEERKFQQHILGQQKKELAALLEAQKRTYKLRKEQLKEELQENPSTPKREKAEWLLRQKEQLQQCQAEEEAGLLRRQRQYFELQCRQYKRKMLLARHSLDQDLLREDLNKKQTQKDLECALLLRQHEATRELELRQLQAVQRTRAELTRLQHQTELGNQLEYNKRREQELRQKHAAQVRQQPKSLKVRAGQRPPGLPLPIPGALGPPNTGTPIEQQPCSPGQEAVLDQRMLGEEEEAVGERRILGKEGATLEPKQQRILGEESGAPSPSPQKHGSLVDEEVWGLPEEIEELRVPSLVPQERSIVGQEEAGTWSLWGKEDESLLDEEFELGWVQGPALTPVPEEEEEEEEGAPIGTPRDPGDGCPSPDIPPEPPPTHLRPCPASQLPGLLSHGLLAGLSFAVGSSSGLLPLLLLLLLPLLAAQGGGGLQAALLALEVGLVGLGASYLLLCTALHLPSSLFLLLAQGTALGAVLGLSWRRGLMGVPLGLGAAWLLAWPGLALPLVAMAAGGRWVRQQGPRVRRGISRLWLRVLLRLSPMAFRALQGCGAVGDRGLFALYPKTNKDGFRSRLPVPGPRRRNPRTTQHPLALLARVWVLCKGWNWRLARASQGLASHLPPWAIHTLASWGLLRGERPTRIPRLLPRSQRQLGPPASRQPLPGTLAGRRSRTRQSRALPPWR
Excerpt: as §1

[14] = target: CAMKK1 (Homo sapiens, UniProt Q8N5S9); conditions: read-out: % Enzyme Activity (relative to DMSO control), 10 uM
Excerpt: as §1

[15] = target: PAK4 (Homo sapiens, UniProt O96013); conditions: read-out: % Enzyme Activity (relative to DMSO control), 10 uM
Excerpt: as §1

[16] = target: STK21/CIT (Homo sapiens, UniProt O14578); conditions: read-out: % Enzyme Activity (relative to DMSO control), 10 uM
Excerpt: as §1

[17] = target: RSK2 (Homo sapiens, UniProt P51812); conditions: read-out: % Enzyme Activity (relative to DMSO control), 10 uM
Excerpt: as §1

[18] = target: CDK4/cyclin D3 (Homo sapiens, UniProt P11802); conditions: read-out: % Enzyme Activity (relative to DMSO control), 10 uM
Excerpt: as §1

[19] = target: BLK (Homo sapiens, UniProt P51451); conditions: read-out: % Enzyme Activity (relative to DMSO control), 10 uM
[20] = target: TRKA (Homo sapiens, UniProt P04629); conditions: read-out: % Enzyme Activity (relative to DMSO control), 10 uM
Excerpt: as §1

[21] = target: PHKg1 (Homo sapiens, UniProt Q16816); conditions: read-out: % Enzyme Activity (relative to DMSO control), 10 uM
Excerpt: as §1

[22] = target: BRSK2 (Homo sapiens, UniProt Q8IWQ3); conditions: read-out: % Enzyme Activity (relative to DMSO control), 10 uM
Excerpt: as §1

[23] = target: GCK/MAP4K2 (Homo sapiens, UniProt Q12851); conditions: read-out: % Enzyme Activity (relative to DMSO control), 10 uM
[24] = target: PIM3 (Homo sapiens, UniProt Q86V86); conditions: read-out: % Enzyme Activity (relative to DMSO control), 10 uM
Excerpt: as §1

Chain of TIE2/TEK (Q02763 23-1124): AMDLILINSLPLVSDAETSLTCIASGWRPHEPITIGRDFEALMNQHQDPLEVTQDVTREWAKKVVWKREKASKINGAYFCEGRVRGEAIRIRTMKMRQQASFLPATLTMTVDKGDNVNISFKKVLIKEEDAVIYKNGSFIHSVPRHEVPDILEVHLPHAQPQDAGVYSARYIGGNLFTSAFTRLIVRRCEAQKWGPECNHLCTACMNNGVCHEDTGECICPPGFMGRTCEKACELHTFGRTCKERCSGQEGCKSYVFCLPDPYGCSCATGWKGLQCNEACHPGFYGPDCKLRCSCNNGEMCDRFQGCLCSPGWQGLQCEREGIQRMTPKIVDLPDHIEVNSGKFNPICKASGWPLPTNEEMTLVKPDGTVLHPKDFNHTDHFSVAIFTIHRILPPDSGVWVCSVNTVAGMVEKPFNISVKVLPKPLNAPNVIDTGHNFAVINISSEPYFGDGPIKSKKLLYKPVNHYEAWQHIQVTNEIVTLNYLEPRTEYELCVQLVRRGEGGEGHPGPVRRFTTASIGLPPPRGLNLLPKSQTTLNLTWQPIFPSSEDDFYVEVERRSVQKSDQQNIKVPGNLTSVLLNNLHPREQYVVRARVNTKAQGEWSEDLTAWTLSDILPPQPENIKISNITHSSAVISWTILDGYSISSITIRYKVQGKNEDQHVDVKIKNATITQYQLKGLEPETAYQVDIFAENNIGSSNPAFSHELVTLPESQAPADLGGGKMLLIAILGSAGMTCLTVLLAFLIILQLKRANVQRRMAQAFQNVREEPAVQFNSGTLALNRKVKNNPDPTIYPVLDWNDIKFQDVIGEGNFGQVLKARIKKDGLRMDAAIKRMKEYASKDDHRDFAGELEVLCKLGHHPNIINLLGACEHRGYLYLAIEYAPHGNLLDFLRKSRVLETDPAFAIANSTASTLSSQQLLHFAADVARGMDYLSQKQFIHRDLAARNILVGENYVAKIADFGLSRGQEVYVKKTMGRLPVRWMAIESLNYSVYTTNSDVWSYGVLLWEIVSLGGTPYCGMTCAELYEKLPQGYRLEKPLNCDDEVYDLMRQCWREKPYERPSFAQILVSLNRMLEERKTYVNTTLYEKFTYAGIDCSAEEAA
Chain of CDK4/cyclin D3 (P11802 whole entry): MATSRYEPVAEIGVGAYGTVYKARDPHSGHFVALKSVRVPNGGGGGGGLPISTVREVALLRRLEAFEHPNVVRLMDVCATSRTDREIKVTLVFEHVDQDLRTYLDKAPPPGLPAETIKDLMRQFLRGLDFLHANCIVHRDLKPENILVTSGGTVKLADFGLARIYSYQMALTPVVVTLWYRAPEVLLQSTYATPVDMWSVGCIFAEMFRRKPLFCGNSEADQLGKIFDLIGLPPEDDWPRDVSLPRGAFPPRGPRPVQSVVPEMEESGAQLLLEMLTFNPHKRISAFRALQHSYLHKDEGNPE
Chain of CDK4/cyclin D3 (P30281 whole entry partner): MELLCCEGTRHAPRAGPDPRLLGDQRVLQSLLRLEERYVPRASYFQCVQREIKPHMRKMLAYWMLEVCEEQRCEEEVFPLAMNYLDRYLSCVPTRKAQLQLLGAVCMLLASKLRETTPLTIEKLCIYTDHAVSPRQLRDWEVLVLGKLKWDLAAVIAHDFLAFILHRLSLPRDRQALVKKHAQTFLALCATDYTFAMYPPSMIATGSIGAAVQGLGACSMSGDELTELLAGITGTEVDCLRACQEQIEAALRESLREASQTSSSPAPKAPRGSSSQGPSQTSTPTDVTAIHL
Chain of BRSK2 (Q8IWQ3 whole entry): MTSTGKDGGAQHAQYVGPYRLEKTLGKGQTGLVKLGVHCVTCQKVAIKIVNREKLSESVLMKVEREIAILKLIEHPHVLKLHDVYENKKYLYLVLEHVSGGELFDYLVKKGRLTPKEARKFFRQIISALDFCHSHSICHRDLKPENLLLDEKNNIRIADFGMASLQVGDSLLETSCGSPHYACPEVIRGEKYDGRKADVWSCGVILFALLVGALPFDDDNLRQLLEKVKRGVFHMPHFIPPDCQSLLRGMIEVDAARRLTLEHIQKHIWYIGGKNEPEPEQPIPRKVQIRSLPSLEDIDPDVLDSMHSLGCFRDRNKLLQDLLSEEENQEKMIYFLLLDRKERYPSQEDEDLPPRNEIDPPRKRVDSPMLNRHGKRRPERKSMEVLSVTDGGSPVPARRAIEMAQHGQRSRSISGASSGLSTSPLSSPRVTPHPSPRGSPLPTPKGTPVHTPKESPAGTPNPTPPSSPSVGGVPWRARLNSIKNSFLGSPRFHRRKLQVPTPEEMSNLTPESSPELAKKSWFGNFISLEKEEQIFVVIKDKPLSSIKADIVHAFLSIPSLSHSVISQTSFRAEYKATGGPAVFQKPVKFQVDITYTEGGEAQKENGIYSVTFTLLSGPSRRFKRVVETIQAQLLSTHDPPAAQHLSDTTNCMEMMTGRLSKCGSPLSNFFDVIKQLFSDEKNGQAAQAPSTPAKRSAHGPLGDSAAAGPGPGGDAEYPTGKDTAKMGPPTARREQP
Chain of ITK (Q08881 whole entry): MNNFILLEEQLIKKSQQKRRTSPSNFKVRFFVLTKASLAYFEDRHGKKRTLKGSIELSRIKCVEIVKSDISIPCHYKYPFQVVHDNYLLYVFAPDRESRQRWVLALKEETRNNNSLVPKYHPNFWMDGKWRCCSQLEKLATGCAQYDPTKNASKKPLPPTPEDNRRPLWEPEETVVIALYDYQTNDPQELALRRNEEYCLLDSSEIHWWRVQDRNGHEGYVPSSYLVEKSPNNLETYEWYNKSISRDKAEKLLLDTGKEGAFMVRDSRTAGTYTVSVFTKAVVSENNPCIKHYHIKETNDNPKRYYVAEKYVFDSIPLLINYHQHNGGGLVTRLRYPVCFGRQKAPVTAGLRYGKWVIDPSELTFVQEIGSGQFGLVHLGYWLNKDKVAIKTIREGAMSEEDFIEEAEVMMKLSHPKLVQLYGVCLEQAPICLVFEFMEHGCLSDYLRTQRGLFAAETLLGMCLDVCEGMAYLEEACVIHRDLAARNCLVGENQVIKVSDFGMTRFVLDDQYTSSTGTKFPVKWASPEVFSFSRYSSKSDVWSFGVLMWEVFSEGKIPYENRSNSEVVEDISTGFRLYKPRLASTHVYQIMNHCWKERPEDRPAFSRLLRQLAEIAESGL
Chain of EPHA5 (P54756 25-1037): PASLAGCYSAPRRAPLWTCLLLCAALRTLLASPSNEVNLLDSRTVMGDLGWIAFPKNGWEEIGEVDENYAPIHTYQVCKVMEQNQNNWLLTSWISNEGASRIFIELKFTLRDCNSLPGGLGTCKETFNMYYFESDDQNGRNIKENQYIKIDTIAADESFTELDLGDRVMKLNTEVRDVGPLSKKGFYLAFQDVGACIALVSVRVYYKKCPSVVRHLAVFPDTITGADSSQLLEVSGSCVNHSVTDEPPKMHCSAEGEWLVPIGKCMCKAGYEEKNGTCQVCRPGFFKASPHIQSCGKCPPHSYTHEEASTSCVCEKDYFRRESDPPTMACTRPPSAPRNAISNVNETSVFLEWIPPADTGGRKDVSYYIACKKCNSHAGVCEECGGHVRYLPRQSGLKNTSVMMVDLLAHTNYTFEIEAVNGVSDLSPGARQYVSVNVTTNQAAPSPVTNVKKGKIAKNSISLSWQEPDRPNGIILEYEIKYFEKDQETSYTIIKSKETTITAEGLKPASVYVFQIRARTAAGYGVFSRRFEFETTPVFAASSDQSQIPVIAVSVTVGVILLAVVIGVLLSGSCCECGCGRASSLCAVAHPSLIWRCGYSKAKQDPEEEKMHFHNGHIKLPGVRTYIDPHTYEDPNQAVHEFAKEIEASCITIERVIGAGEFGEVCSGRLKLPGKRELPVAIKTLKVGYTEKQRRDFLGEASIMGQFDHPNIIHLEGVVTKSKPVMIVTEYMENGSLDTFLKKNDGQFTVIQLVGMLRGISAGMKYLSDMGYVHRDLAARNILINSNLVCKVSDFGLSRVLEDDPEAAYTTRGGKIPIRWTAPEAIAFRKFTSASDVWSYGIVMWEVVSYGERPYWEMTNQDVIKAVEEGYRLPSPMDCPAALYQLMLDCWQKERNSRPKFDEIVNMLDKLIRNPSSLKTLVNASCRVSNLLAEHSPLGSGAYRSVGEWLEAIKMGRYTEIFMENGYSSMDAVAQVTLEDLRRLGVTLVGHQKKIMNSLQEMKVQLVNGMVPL
Chain of FGFR3 (P22607 23-806): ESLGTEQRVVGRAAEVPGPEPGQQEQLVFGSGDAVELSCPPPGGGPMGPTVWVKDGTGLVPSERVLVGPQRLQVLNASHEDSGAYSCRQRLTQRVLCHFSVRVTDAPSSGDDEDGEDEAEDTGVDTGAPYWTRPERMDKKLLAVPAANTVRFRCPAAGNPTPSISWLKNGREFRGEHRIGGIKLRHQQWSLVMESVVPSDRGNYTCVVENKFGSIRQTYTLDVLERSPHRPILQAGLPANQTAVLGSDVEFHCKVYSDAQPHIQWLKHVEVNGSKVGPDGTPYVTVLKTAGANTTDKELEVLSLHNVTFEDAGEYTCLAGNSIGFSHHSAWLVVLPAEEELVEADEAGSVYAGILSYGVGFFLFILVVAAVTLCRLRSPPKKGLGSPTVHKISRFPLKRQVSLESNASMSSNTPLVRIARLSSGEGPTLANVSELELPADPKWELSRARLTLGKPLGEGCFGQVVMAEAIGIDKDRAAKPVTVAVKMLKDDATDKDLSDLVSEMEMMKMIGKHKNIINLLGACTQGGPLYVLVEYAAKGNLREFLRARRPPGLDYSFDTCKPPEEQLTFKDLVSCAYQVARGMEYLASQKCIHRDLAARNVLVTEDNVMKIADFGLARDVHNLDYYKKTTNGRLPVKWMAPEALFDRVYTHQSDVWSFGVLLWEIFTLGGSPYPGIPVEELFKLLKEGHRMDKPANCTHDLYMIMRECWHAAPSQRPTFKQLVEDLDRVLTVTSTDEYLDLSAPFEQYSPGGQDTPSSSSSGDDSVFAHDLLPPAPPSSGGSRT

`C#C[C@@](C)(c1ccc(Cl)cc1)c1csc(NC(=O)c2c(F)cc(N3CCNCC3)cc2F)n1` (stereo in doubt) [DF-003] gave a remaining activity at 10 µM [1] of 71.2%, a remaining activity at 10 µM [2] of 12.7% and a remaining activity at 10 µM [3] of 129%. The remaining activity at 10 µM [4] was 136%, the remaining activity at 10 µM [5] was 89.9% and the remaining activity at 10 µM [6] was 100%. For the same molecule, the remaining activity at 10 µM [7] was 83.5%, the remaining activity at 10 µM [8] was 95.5% and the remaining activity at 10 µM [9] was 82.9%. It also gave a remaining activity at 10 µM [10] of 125%, a remaining activity at 10 µM [11] of 80.2% and a remaining activity at 10 µM [12] of 79.5%. For the same molecule, the IC50 ([13]; DF-003 IC50 (nM), 10-dose) was 1290 nM, the IC50 ([13]; IC50, 10-dose) was 1290 nM and the remaining activity at 10 µM ([13]; read-out: % Enzyme Activity (relative to DMSO control), 10 uM) was 5.89%. The remaining activity at 10 µM [14] was 92.8%, the remaining activity at 10 µM [15] was 102% and the remaining activity at 10 µM [16] was 108%. It also gave a remaining activity at 10 µM [17] of 104%, a remaining activity at 10 µM [18] of 91.1% and a remaining activity at 10 µM [19] of 74.5%. The remaining activity at 10 µM [20] was 46.4%, the remaining activity at 10 µM [21] was 92.1% and the remaining activity at 10 µM [22] was 96%. The remaining activity at 10 µM [23] was 84% and the remaining activity at 10 µM [24] was 95.5%.

From article PMC12420824, “Discovery of a selective alpha-kinase 1 inhibitor for the rare genetic disease ROSAH syndrome” (Nature Communications, 2025)
